Measurements taken from patent publication US4705799A, “Aminomethyl oxooxazolidinyl benzenes useful as antibacterial agents” (E. I. Du Pont de Nemours and Company, priority 1985, dated 1987).
In brackets after ≈: the same amount, converted by molar mass. Where a name gives a salt, the structure may show the parent alone. Read-outs that look alike come from different tables or passages of the source.

How the values were obtained:
[1] = system: Escherichia coli; experiment: In vitro broth dilution minimal inhibitory concentration (standard microdilution method); type: cell-based; conditions: Escherichia coli, read-out: Microdilution Broth MIC
[2] = system: Staphylococcus epidermidis; experiment: as above; type: cell-based; conditions: 24 h, read-out: Microdilution Broth MIC
[3] = system: Staphylococcus aureus; experiment: In vivo efficacy of orally administered compounds in mouse intraperitoneal infections; conditions: Staphylococcus aureus, po, 168 h, read-out: ED50 (50 percent effective dose)
Experimental: (§1) Determinations of in vivo efficacy are performed by inoculating mice intraperitoneally with cultures of the infecting organism diluted to produce 90-100% mortality in control animals within twenty-four hours. The diluents used were trypticase soy broth for E. coli and 5% aqueous hog gastric mucin for Staphylococcus aureus infections. The compounds are dissolved or suspended in 0.25% aqueous Methocel® (Methocel®: Hydroxypropyl Methylcellulose E15 Premium, Dow Chemical Company) for oral administration or sterile distilled water containing 5% dimethylsulfoxide (Fisher Scientific Company, Fairlawn, N.J.) for subcutaneous administration. The mice are dosed at the time of infection and again at four hours post-infection. Mortality is recorded daily until test termination seven days post infection and the 50 percent effective dose, ED50, is calculated by the Reed-Muench method (Reed, L. G. and Muench, H., "A simple method of estimating fifty percent end points," American Journal of Hygiene, 27, 493-497 (1938).

[4] = system: Staphylococcus aureus; experiment: In vivo efficacy of compounds administered subcutaneously in mouse intraperitoneal infections; conditions: sc, 168 h; mouse i.p. Staphylococcus aureus infection; subcutaneous; dosed at infection and 4 h post-infection; 7 days; read-out: ED50 (50 percent effective dose)
Experimental: as §1

[5] = mouse i.p. Staphylococcus aureus infection, oral, dosed at infection and 4 h post-infection, 7 days

SMILES	MIC ([1]; Mueller-Hinton broth, 24-hour)	MIC ([2]; Mueller-Hinton broth, 24-hour)	ED50 [3, 5]	ED50 [4]	MIC ([1]; 24 h)	ED50 [3]	MIC [2]
CS(=O)(=O)c1ccc(N2CC(CN)OC2=O)cc1 (racemic) [Example 10, (dl)-5-Aminomethyl-3-[4-(methylsulfonyl)phenyl]-2-oxazolidinone trifluoroacetic Acid Salt]	> 100 µg/mL	50 µg/mL					
CC(C)c1ccc(N2CC(CNC(=O)CN)OC2=O)cc1 (racemic) [Example 157, (dl)-2-Amino-N-[3-[4-(1-methylethyl)phenyl]-2-oxooxazolidin-5-ylmethyl]acetamide]	> 200 µg/mL	50 µg/mL (≈ 172 µM)	58.9 mg/kg	19.6 mg/kg			
NCC1CN(c2ccc(S(N)(=O)=O)cc2)C(=O)O1 (single isomer, unassigned) [Example 12, (l)-4-[5-(Aminomethyl)-2-oxooxazolidin-3-yl]benzenesulfonamide]	> 100 µg/mL	> 100 µg/mL	179 mg/kg	89.8 mg/kg			
NS(=O)(=O)c1ccc(N2CC(CNC=O)OC2=O)cc1 (single isomer, unassigned) [Example 24, (l)-N-[3-[4-(Aminosulfonyl)phenyl]-2-oxooxazolidin-5-ylmethyl]formamide]	> 100 µg/mL	> 100 µg/mL	74.3 mg/kg				
CC(=O)NCC1CN(c2ccc(C(C)=NN)cc2)C(=O)O1 (single isomer, unassigned) [Example 131, (l)-N-[3-[4-(1-Hydrazonoethyl)phenyl]-2-oxo-5-oxazolidinylmethyl]acetamide]	100 µg/mL (≈ 344 µM)	3.1 µg/mL (≈ 10.7 µM)	< 4.4 mg/kg	< 4.4 mg/kg			
CC(=O)NCC1CN(c2ccc([N+](=O)[O-])cc2[N+](=O)[O-])C(=O)O1 (single isomer, unassigned) [Example 147, (l)-N-[3-(2,4-Dinitrophenyl)-2-oxooxazolidin-5-ylmethyl]acetamide]					> 200 µg/mL	44.4 mg/kg	200 µg/mL (≈ 617 µM)
CC(=O)NCC1CN(c2ccc(NC(C)=O)cc2)C(=O)O1 (single isomer, unassigned) [Example 150, (l)-N-[3-[4-(Acetylamino)phenyl]-2-oxooxazolidin-5-ylmethyl]acetamide]	> 200 µg/mL	200 µg/mL (≈ 687 µM)	56.9 mg/kg	12.5 mg/kg			
CC(=O)NCC1CN(c2ccc(SCC#N)cc2)C(=O)O1 (single isomer, unassigned) [Example 154, (l)-N-[3-[4-(Cyanomethylthio)phenyl]-2-oxooxazolidin-5-ylmethyl]acetamide]	> 200 µg/mL	3.2 µg/mL (≈ 10.5 µM)					
CON=C(C)c1ccc(N2CC(CNC(C)=O)OC2=O)cc1 (single isomer, unassigned) [Example 160, (l)-N-[3-(4-Acetylphenyl)-2-oxooxazolidin-5-ylmethyl]acetamide Oxime, methyl ether]	> 200 µg/mL	12.5 µg/mL (≈ 40.9 µM)	< 4.4 mg/kg	< 4.4 mg/kg			
CC(=O)NCC1CN(c2ccc(C(=O)C=CN(C)C)cc2)C(=O)O1 (single isomer, unassigned) [Example 162]	> 128 µg/mL	32 µg/mL (≈ 96.6 µM)	11.3 mg/kg	20.9 mg/kg			
CC(=O)NCC1CN(c2ccc(CBr)cc2)C(=O)O1 (single isomer, unassigned) [Example 166, (l)-N-[3-[4-(Bromomethyl)phenyl]-2-oxooxazolidin-5-ylmethyl]acetamide]	> 128 µg/mL	64 µg/mL (≈ 196 µM)					
CC(=O)NCC1CN(c2ccc(SCCO)cc2)C(=O)O1 (single isomer, unassigned) [Example 167, (l)-N-[3-[4-(2-Hydroxyethylthio)phenyl]-2-oxooxazolidin-5-ylmethyl]acetamide]	> 200 µg/mL	3.1 µg/mL (≈ 9.99 µM)	68.2 mg/kg	10.8 mg/kg			
CC(=O)c1ccc(N2CC(CN)OC2=O)cc1 (single isomer, unassigned) [Example 170, (l)-3-(4-Acetylphenyl)-5-(aminomethyl)-2-oxazolidinone hydrochloride]	> 128 µg/mL	> 128 µg/mL	32.3 mg/kg	25.3 mg/kg			
CC(=O)NCC1CN(c2ccc(C(=O)COC(C)=O)cc2)C(=O)O1 (single isomer, unassigned) [Example 183, (l)-N-[3-[4-(Acetyloxyacetyl)phenyl]-2-oxo-5-oxazolidinylmethyl]acetamide]	64 µg/mL (≈ 191 µM)	0.5 µg/mL (≈ 1.5 µM)	9.1 mg/kg	3.4 mg/kg			
CC(=O)NCC1CN(c2ccc(C=O)cc2)C(=O)O1 (single isomer, unassigned) [Example 185, (l)-N-[3-(4-Formylphenyl)-2-oxo-5-oxazolidinylmethyl]acetamide]	> 128 µg/mL	> 128 µg/mL		35.9 mg/kg			
CSc1ccc(N2CC(CN=[N+]=[N-])OC2=O)cc1 (stereo not drawn) [Example 4]	> 200 µg/mL	> 200 µg/mL	43.3 mg/kg				
CS(=O)(=O)c1ccc(N2CC(CNC(=O)C(F)(F)F)OC2=O)cc1 (stereo not drawn) [Example 28]	50 µg/mL (≈ 136 µM)	12.5 µg/mL (≈ 34.1 µM)	71.3 mg/kg				
CCCC(=O)NCC1CN(c2ccc(S(C)(=O)=O)cc2)C(=O)O1 (stereo not drawn) [Example 29]	100 µg/mL (≈ 294 µM)	12.5 µg/mL (≈ 36.7 µM)	88.7 mg/kg				

SMILES	MIC ([1]; Mueller-Hinton broth, 24-hour)	MIC ([2]; Mueller-Hinton broth, 24-hour)	ED50 [3, 5]	ED50 [4]	MIC ([1]; 24 h)	ED50 [3]	MIC [2]
CNC(=O)NCC1CN(c2ccc(S(C)(=O)=O)cc2)C(=O)O1 (stereo not drawn) [Example 35]	200 µg/mL (≈ 611 µM)	25 µg/mL (≈ 76.4 µM)	35.8 mg/kg				
CC(=O)NCC1CN(c2cccc(C(C)=O)c2)C(=O)O1 (stereo not drawn) [Example 37]	> 200 µg/mL	200 µg/mL (≈ 724 µM)	62.9 mg/kg				
C=CC(=O)NCC1CN(c2ccc(SC)cc2)C(=O)O1 (stereo not drawn) [Example 40]	> 200 µg/mL	12.5 µg/mL (≈ 42.8 µM)	53.1 mg/kg				
COc1ccc(N2CC(CNC(C)=O)OC2=O)cc1 (stereo not drawn) [Example 44]	> 200 µg/mL	100 µg/mL (≈ 378 µM)	30.3 mg/kg				
CCCOC(=O)NCC1CN(c2ccc(S(C)(=O)=O)cc2)C(=O)O1 (stereo not drawn) [Example 70]	> 200 µg/mL	50 µg/mL (≈ 140 µM)	51.7 mg/kg				
COC(OC)C(=O)NCC1CN(c2ccc(SC)cc2)C(=O)O1 (stereo not drawn) [Example 73]	> 200 µg/mL	> 200 µg/mL	59.5 mg/kg				
COC(OC)C(=O)NCC1CN(c2ccc(S(C)(=O)=O)cc2)C(=O)O1 (stereo not drawn) [Example 74]	> 200 µg/mL	100 µg/mL (≈ 269 µM)	96.6 mg/kg				
CCOC(OCC)C(=O)NCC1CN(c2ccc(SC)cc2)C(=O)O1 (stereo not drawn) [Example 75]	> 200 µg/mL	> 200 µg/mL	130 mg/kg				
CCOC(OCC)C(=O)NCC1CN(c2ccc(S(C)(=O)=O)cc2)C(=O)O1 (stereo not drawn) [Example 76]	> 200 µg/mL	> 200 µg/mL	58 mg/kg				
CS(=O)(=O)c1ccc(N2CC(CNC(N)=O)OC2=O)cc1 (stereo not drawn) [Example 77]	> 200 µg/mL	200 µg/mL (≈ 638 µM)		70.9 mg/kg			
CS(=O)(=O)c1ccc(N2CC(CNC(=O)C(N)c3ccccc3)OC2=O)cc1 (stereo not drawn) [Example 78]	> 200 µg/mL	> 200 µg/mL		67.1 mg/kg			
C=CC(=O)NCC1CN(c2ccc([S+](C)[O-])cc2)C(=O)O1 (stereo not drawn) [Example 91]	> 200 µg/mL	25 µg/mL (≈ 81.1 µM)	50.7 mg/kg				
CSc1ccc(N2CC(CNC(=O)CCCl)OC2=O)cc1 (stereo not drawn) [Example 92]	> 200 µg/mL	50 µg/mL (≈ 152 µM)	31 mg/kg				
C[S+]([O-])c1ccc(N2CC(CNC(=O)CCCl)OC2=O)cc1 (stereo not drawn) [Example 93]	> 200 µg/mL	50 µg/mL (≈ 145 µM)	> 120 mg/kg				
CC(=O)NCC1CN(c2ccc(C#CCO)cc2)C(=O)O1 (stereo not drawn) [Example 103]	> 50 µg/mL	12.5 µg/mL (≈ 43.4 µM)					
CC(=O)NCC1CN(c2ccc(C(O)CO)cc2)C(=O)O1 (stereo not drawn) [Example 104]	> 128 µg/mL	32 µg/mL (≈ 109 µM)					
CC(=O)NCC1CN(c2ccc(CO)cc2)C(=O)O1 (stereo not drawn) [Example 106]	> 128 µg/mL	64 µg/mL (≈ 242 µM)					
